Source: patent publication US20250320194A1, “PHARMACEUTICALLY ACCEPTABLE SALT AND CRYSTAL FORM OF FUSED PYRIDINE RING DERIVATIVE AND PREPARATION METHOD THEREFOR” (Jiangsu Hengrui Pharmaceuticals Co., Ltd., priority 2021, published 2025)

What was measured:
[1] = Hygroscopicity of salt crystal forms (DVS, 25° C.); type: physicochemical; details: for Hygroscopicity 0.0% RH-95.0% RH / Hygroscopicity 20.0% RH-80.0% RH: DVS, 25° C.; for Crystal form: after DVS
Experimental: The test adopts SMS DVS Advantage, at 25° C., with a humidity range of 0 to 95% and a step of 10%. The judgment standard is that the dM/dT of each gradient mass change is less than 0.002%, TMAX is 360 minutes, and the cycle is two times. • 5. Cation chromatography • Instrument model: DIONEX AQUION ion chromatograph, USA • Detection method: conductivity; separation column: IonPac CS16-CG16 • Eluent: MSA 20Mm • Flow rate: 1.0 ml/min • 6. Anion chromatography • Instrument model: DIONEX INTEGRION HPIC ion chromatograph, USA • Detection method: conductivity; separation column: DionexIonPac™-AS11-HC • Eluent: EGC-500-KOH • Flow rate: 1.5 ml/min
Using Surface Measurement Systems advantage, at 25° C., the humidity starts from 50%, the humidity range is 0% to 95%, the step is 10%. The judgment standard was that the dM/dT of each gradient mass change is less than 0.002%, TMAX360 min, and the cycle was two times. The hygroscopicity of different salt crystal forms of the compound of formula I was investigated respectively.

[2] = Stability under influencing factors (high temperature, high humidity, open, 30 days)
[3] = Long-term/accelerated stability; details: for physical and chemical stability (conclusion): long-term accelerated stability conditions for 6 months

## CC(C)(C#Cc1nc(C(Cc2cc(F)cc(F)c2)NC(=O)Cn2nc(C(F)(F)F)c3c2C(F)(F)C2CC32)c(-c2ccc(Cl)c3c(NS(C)(=O)=O)nn(CC(F)(F)F)c23)c2c1CCC2)S(C)(=O)=O.O=S(=O)(O)O (centres unmarked) [Crystal form A of hydrosulfate]
[1]
  Hygroscopicity 0.0% RH-95.0% RH: 4.55%
  Hygroscopicity 20.0% RH-80.0% RH: 1.59%
  Crystal form: Unchanged
[2]; 40° C., 60° C., 7500 RH and 92.5% RH, crystal form not transformed
  physical stability (conclusion): good physical stability
[2]; 40° C., 7500 RH and 92.5%0 RH, not at high temperature (60° C.)
  chemical stability (conclusion): good chemical stability
[2]; 40° C., 5 days
  Color, properties: White solid
  Crystal form: Unchanged
  Purity %: 99.06%
[2]; 40° C., 10 days
  Color, properties: White solid
  Crystal form: Unchanged
  Purity %: 99.01%
[2]; 40° C., 30 days
  Color, properties: White solid
  Crystal form: Unchanged
  Purity %: 99.03%
[2]; 60° C., 5 days
  Color, properties: White solid
  Crystal form: Unchanged
  Purity %: 96.46%
[2]; 60° C., 10 days
  Color, properties: White solid
  Crystal form: Unchanged
  Purity %: 96.22%
[2]; 60° C., 30 days
  Color, properties: White solid
  Crystal form: Unchanged
  Purity %: 95.17%
[2]; 75% RH, 5 days
  Color, properties: White solid
  Crystal form: Unchanged
  Purity %: 99.11%
[2]; 75% RH, 10 days
  Color, properties: White solid
  Crystal form: Unchanged
  Purity %: 99.11%
[2]; 75% RH, 30 days
  Color, properties: White solid
  Crystal form: Unchanged
  Purity %: 99.05%
[2]; 92.5% RH, 5 days
  Color, properties: White solid
  Crystal form: Unchanged
  Purity %: 99.18%
[2]; 92.5% RH, 10 days
  Color, properties: White solid
  Crystal form: Unchanged
  Purity %: 99.02%
[2]; 92.5% RH, 30 days
  Color, properties: White solid
  Crystal form: Unchanged
  Purity %: 99.07%
[2]; Start, 0 days
  Color, properties: White solid
  Purity %: 99.09%
[3]; 4° C., 1 month
  Purity %: 99.09%
[3]; 4° C., 2 months
  Purity %: 99.08%
[3]; 4° C., 3 months
  Purity %: 99.08%
[3]; 4° C., 6 months
  Purity %: 99.09%
[3]; 4° C., Start
  Purity %: 99.09%
[3]; 25° C., 60% RH, 1 month
  Purity %: 99.01%
[3]; 25° C., 60% RH, 2 months
  Purity %: 98.99%
[3]; 25° C., 60% RH, 3 months
  Purity %: 99.03%
[3]; 25° C., 60% RH, 6 months
  Purity %: 98.91%
[3]; 25° C., 60% RH, Start
  Purity %: 99.09%
[3]; 40° C., 75% RH, 1 month
  Purity %: 98.83%
[3]; 40° C., 75% RH, 2 months
  Purity %: 98.99%
[3]; 40° C., 75% RH, 3 months
  Purity %: 98.98%
[3]; 40° C., 75% RH, 6 months
  Purity %: 98.76%
[3]; 40° C., 75% RH, Start
  Purity %: 99.09%
[3]
  physical and chemical stability (conclusion): good physical and chemical stability

## CC(C)(C#Cc1nc(C(Cc2cc(F)cc(F)c2)NC(=O)Cn2nc(C(F)(F)F)c3c2C(F)(F)C2CC32)c(-c2ccc(Cl)c3c([N-]S(C)(=O)=O)nn(CC(F)(F)F)c23)c2c1CCC2)S(C)(=O)=O.C[N+](C)(C)CCO (centres unmarked) [Crystal form B of the choline salt]
[1]
  Hygroscopicity 0.0% RH-95.0% RH: 9.92%
  Hygroscopicity 20.0% RH-80.0% RH: 5.96%
  Crystal form: Unchanged
[2]; 40° C., 5 days
  Color, properties: White solid
  Crystal form: Unchanged
  Purity %: 98.34%
[2]; 40° C., 10 days
  Color, properties: White solid
  Crystal form: Unchanged
  Purity %: 98.33%
[2]; 40° C., 30 days
  Color, properties: White solid
  Crystal form: Unchanged
  Purity %: 98.35%
[2]; 60° C., 5 days
  Color, properties: White solid
  Crystal form: Unchanged
  Purity %: 98.39%
[2]; 60° C., 10 days
  Color, properties: White solid
  Crystal form: Unchanged
  Purity %: 98.36%
[2]; 60° C., 30 days
  Color, properties: White solid
  Crystal form: Unchanged
  Purity %: 98.36%
[2]; 75% RH, 5 days
  Color, properties: White solid
  Crystal form: Unchanged
  Purity %: 98.35%
[2]; 75% RH, 10 days
  Color, properties: White solid
  Crystal form: Unchanged
  Purity %: 98.35%
[2]; 75% RH, 30 days
  Color, properties: White solid
  Crystal form: Unchanged
  Purity %: 98.36%
[2]; 92.5% RH, 5 days
  Color, properties: White solid
  Crystal form: Unchanged
  Purity %: 98.45%
[2]; 92.5% RH, 10 days
  Color, properties: White solid
  Crystal form: Unchanged
  Purity %: 98.34%
[2]; 92.5% RH, 30 days
  Color, properties: White solid
  Crystal form: Unchanged
  Purity %: 98.35%
[2]; Start, 0 days
  Color, properties: White solid
  Purity %: 98.34%

## CC(C)(C#Cc1nc(C(Cc2cc(F)cc(F)c2)NC(=O)Cn2nc(C(F)(F)F)c3c2C(F)(F)C2CC32)c(-c2ccc(Cl)c3c([N-]S(C)(=O)=O)nn(CC(F)(F)F)c23)c2c1CCC2)S(C)(=O)=O.[Na+] (centres unmarked) [Crystal form II of the sodium salt]
[1]
  Hygroscopicity 0.0% RH-95.0% RH: 34.16%
  Hygroscopicity 20.0% RH-80.0% RH: 11.61%
  Crystal form: Unchanged
[2]; 40° C., 60° C., 75% RH and 92.5% RH
  physical and chemical stability (conclusion): good physical and chemical stability
[2]; 40° C., 5 days
  Color, properties: White solid
  Crystal form: Unchanged
[2]; 40° C., 5 days, listed as II-crystal form of the sodium salt
  Purity %: 97.88%
[2]; 40° C., 10 days
  Color, properties: White solid
  Crystal form: Unchanged
[2]; 40° C., 10 days, listed as II-crystal form of the sodium salt
  Purity %: 97.83%
[2]; 40° C., 30 days
  Color, properties: White solid
  Crystal form: Unchanged
[2]; 40° C., 30 days, listed as II-crystal form of the sodium salt
  Purity %: 97.88%
[2]; 60° C., 5 days
  Color, properties: White solid
  Crystal form: Unchanged
[2]; 60° C., 5 days, listed as II-crystal form of the sodium salt
  Purity %: 97.86%
[2]; 60° C., 10 days
  Color, properties: White solid
  Crystal form: Unchanged
[2]; 60° C., 10 days, listed as II-crystal form of the sodium salt
  Purity %: 97.88%
[2]; 60° C., 30 days
  Color, properties: White solid
  Crystal form: Unchanged
[2]; 60° C., 30 days, listed as II-crystal form of the sodium salt
  Purity %: 97.90%
[2]; 75% RH, 5 days
  Color, properties: White solid
  Crystal form: Unchanged
[2]; 75% RH, 5 days, listed as II-crystal form of the sodium salt
  Purity %: 97.84%
[2]; 75% RH, 10 days
  Color, properties: White solid
  Crystal form: Unchanged
[2]; 75% RH, 10 days, listed as II-crystal form of the sodium salt
  Purity %: 97.84%
[2]; 75% RH, 30 days
  Color, properties: White solid
  Crystal form: Unchanged
[2]; 75% RH, 30 days, listed as II-crystal form of the sodium salt
  Purity %: 97.82%
[2]; 92.5% RH, 5 days
  Color, properties: White solid
  Crystal form: Unchanged
[2]; 92.5% RH, 5 days, listed as II-crystal form of the sodium salt
  Purity %: 97.84%
[2]; 92.5% RH, 10 days
  Color, properties: White solid
  Crystal form: Unchanged
[2]; 92.5% RH, 10 days, listed as II-crystal form of the sodium salt
  Purity %: 97.85%
[2]; 92.5% RH, 30 days
  Color, properties: White solid
  Crystal form: Unchanged
[2]; 92.5% RH, 30 days, listed as II-crystal form of the sodium salt
  Purity %: 97.82%
[2]; Start, 0 days
  Color, properties: White solid
  Purity %: 97.76%
[3]; 4° C., 1 month
  Purity %: 97.83%
[3]; 4° C., 2 months
  Purity %: 97.83%
[3]; 4° C., 3 months
  Purity %: 97.79%
[3]; 4° C., 6 months
  Purity %: 97.77%
[3]; 4° C., Start
  Purity %: 97.76%
[3]; 25° C., 60% RH, 1 month
  Purity %: 97.82%
[3]; 25° C., 60% RH, 2 months
  Purity %: 97.82%
[3]; 25° C., 60% RH, 3 months
  Purity %: 97.86%
[3]; 25° C., 60% RH, 6 months
  Purity %: 97.79%
[3]; 25° C., 60% RH, Start
  Purity %: 97.76%
[3]; 40° C., 75% RH, 1 month
  Purity %: 97.81%
[3]; 40° C., 75% RH, 2 months
  Purity %: 97.80%
[3]; 40° C., 75% RH, 3 months
  Purity %: 97.83%
[3]; 40° C., 75% RH, 6 months
  Purity %: 97.76%
[3]; 40° C., 75% RH, Start
  Purity %: 97.76%
[3]
  physical and chemical stability (conclusion): good physical and chemical stability

## CC(C)(C#Cc1nc(C(Cc2cc(F)cc(F)c2)NC(=O)Cn2nc(C(F)(F)F)c3c2C(F)(F)C2CC32)c(-c2ccc(Cl)c3c([N-]S(C)(=O)=O)nn(CC(F)(F)F)c23)c2c1CCC2)S(C)(=O)=O.[Na+] (centres unmarked) [Crystal form IV of the sodium salt]
[1]
  Hygroscopicity 0.0% RH-95.0% RH: 1.03%
  Hygroscopicity 20.0% RH-80.0% RH: 0.45%
  Crystal form: changed
